Reference: ChEMBL document CHEMBL4311992, “Discovery of 3-(((9H-purin-6-yl)amino)methyl)-4,6-dimethylpyridin-2(1H)-one derivatives as novel tubulin polymerization inhibitors for treatment of cancer” (Eur J Med Chem, 2019)
The source made the active and inactive calls. The rule behind the calls is not given here.

Key:
[1] = species: Homo sapiens; experiment: Inhibition of recombinant full-length human JNK2alpha2 S51N mutant assessed as residual activity at 10 uM using ATF2 as substrate measured after 40 mins in presence of [gamma33P]ATP by scintillation counting method
[2] = tested on: HCT-116; experiment: Cell cycle arrest in human HCT116 cells assessed as up regulation of CDK1 expression up to 150 nM after 24 hrs by Western blot analysis; format: functional, cell-based
[3] = species: Homo sapiens; experiment: Inhibition of recombinant human Mer H628Q/R794A mutant (557 to 882 residues) assessed as residual activity at 10 uM using GGMEDIYFEFMGGKKK as substrate measured after 40 mins in presence of [gamma33P]ATP by scintillation counting method
[4] = target: Serine/threonine-protein kinase Chk2 (Homo sapiens) (UniProt O96017); experiment: Inhibition of recombinant human CHK2 (5 to end residues) assessed as residual activity at 10 uM using KKKVSRSGLYRSPSMPENLNRPR as substrate measured after 40 mins in presence of [gamma33P]ATP by scintillation counting method
[5] = target: Cyclin-dependent kinase-like 2 (Homo sapiens) (UniProt Q92772); experiment: Inhibition of human CDKL2 assessed as residual activity at 10 uM by radiometric method
Chain of Cyclin-dependent kinase-like 2 (Homo sapiens) (Q92772 whole entry): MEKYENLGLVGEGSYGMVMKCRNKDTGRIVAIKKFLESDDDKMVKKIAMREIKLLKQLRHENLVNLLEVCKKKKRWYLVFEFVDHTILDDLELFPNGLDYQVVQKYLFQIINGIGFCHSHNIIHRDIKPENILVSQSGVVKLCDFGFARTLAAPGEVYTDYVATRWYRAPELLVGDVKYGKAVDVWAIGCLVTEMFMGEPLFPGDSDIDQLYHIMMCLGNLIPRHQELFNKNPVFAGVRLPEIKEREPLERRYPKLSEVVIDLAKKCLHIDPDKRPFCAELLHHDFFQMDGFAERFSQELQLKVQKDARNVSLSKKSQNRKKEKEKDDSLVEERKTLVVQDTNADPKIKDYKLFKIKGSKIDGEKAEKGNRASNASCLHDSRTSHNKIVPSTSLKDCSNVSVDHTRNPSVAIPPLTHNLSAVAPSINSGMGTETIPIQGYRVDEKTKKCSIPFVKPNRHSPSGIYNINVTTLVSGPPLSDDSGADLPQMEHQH

[6] = target: Serine/threonine-protein kinase MARK2 (Homo sapiens) (UniProt Q7KZI7); experiment: Inhibition of recombinant full-length human PAR1Balpha assessed as residual activity at 10 uM using KKKVSRSGLYRSPSMPENLNRPR as substrate measured after 40 mins in presence of [gamma33P]ATP by scintillation counting method
[7] = tested on: Proto-oncogene tyrosine-protein kinase receptor Ret (Homo sapiens), P07949 [V804M]; experiment: Inhibition of human Ret V804M mutant (658 to end residues) using […] as substrate measured after 40 mins in presence of [gamma33P]ATP by scintillation counting method; set-up: scale not given: the % may be the effect or the level left
[8] = tested on: Proto-oncogene tyrosine-protein kinase Src (Homo sapiens), P12931 [T341M]; experiment: Inhibition of recombinant full-length human Src T341M mutant assessed as residual activity at 10 uM using GGEEEEYFELVKKKK as substrate measured after 40 mins in presence of [gamma33P]ATP by scintillation counting method
[9] = target: G protein-coupled receptor kinase 3 (Homo sapiens) (UniProt P35626); experiment: Inhibition of recombinant full-length human GRK5 assessed as residual activity at 10 uM using casein as substrate measured after 40 mins in presence of [gamma33P]ATP by scintillation counting method
Chain of G protein-coupled receptor kinase 3 (Homo sapiens) (P35626 whole entry, the tested form may be a part): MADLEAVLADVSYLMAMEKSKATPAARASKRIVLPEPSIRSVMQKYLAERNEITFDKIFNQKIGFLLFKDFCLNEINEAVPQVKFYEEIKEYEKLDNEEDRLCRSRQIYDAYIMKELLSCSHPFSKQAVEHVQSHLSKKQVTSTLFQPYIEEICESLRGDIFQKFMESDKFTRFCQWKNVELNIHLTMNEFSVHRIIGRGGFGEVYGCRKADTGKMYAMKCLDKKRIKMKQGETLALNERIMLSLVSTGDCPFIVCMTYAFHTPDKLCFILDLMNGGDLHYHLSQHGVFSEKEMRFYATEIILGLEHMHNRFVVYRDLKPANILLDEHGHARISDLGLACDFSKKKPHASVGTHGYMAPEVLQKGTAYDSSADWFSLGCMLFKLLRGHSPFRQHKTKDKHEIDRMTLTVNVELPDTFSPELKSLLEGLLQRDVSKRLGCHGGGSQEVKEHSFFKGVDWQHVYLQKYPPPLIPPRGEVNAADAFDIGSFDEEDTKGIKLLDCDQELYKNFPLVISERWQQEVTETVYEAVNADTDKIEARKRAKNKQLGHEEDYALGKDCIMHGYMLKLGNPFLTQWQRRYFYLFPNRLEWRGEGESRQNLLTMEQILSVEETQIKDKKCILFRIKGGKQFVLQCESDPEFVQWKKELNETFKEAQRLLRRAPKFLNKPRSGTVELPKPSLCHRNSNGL

[10] = target: Phosphatidylinositol 4-phosphate 3-kinase C2 domain-containing subunit alpha (Homo sapiens) (UniProt O00443); experiment: Inhibition of recombinant human PI3KC2alpha (299 to end residues) assessed as residual activity at 10 uM using phosphatidylinositol as substrate measured after 40 mins by HTRF assay
[11] = target: G protein-coupled receptor kinase 3 (Homo sapiens) (UniProt P35626); experiment: Inhibition of recombinant full-length human GRK3 assessed as residual activity at 10 uM using casein as substrate measured after 40 mins in presence of [gamma33P]ATP by scintillation counting method
[12] = target: Epidermal growth factor receptor (Homo sapiens) (UniProt P00533); experiment: Inhibition of recombinant human EGFR (696 to end residues) assessed as residual activity at 10 uM using poly(Glu, Tyr) 4:1 as substrate measured after 40 mins in presence of [gamma33P]ATP by scintillation counting method
[13] = target: Mitogen-activated protein kinase kinase kinase 20 (Homo sapiens) (UniProt Q9NYL2); experiment: Inhibition of recombinant full-length human ZAK assessed as residual activity at 10 uM using MBP as substrate measured after 40 mins in presence of [gamma33P]ATP by scintillation counting method
[14] = tested on: SW-620; experiment: Induction of apoptosis in human SW620 cells assessed as late apoptotic cells at 50 nM measured after 48 hrs by Annexin V-FITC/propidium iodide staining-based flow cytometry (reference value: 1.8%); format: functional
[15] = tested on: SW-620; experiment: Cell cycle arrest in human SW620 cells assessed as up regulation of CDK1 expression up to 150 nM after 24 hrs by Western blot analysis; format: functional, cell-based
[16] = target: LIM domain kinase 1 (Homo sapiens) (UniProt P53667); experiment: Inhibition of recombinant human LIMK1 (285 to 638 residues) assessed as residual activity at 10 uM using cofilin as substrate measured after 40 mins in presence of [gamma33P]ATP by scintillation counting method
[17] = target: Mitogen-activated protein kinase kinase kinase 2 (Homo sapiens) (UniProt Q9Y2U5); experiment: Inhibition of recombinant full-length human MEKK2 assessed as residual activity at 10 uM using myelin basic protein as substrate measured after 40 mins in presence of [gamma33P]ATP by scintillation counting method
Chain of Mitogen-activated protein kinase kinase kinase 2 (Homo sapiens) (Q9Y2U5 whole entry): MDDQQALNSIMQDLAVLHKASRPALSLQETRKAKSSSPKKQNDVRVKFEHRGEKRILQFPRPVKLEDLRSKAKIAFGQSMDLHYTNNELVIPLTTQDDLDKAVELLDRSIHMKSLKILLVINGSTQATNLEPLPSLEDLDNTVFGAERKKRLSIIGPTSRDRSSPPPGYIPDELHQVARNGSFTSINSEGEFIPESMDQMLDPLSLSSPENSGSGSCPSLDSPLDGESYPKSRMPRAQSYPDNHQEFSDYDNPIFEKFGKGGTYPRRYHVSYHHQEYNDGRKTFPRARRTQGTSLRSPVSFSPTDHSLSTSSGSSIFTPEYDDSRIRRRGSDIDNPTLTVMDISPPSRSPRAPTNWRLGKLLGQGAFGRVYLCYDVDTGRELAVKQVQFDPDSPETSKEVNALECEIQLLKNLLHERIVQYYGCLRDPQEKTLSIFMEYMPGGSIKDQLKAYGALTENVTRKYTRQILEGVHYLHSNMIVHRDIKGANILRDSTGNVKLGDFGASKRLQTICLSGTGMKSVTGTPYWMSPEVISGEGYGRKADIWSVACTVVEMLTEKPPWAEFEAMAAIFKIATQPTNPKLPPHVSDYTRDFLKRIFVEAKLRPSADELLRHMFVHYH

[18] = tested on: Serine/threonine-protein kinase Sgk1 (Homo sapiens), O00141 [S422D]; experiment: Inhibition of recombinant human SGK S422D mutant (60 to end residues) assessed as residual activity at 10 uM using GRPRTSSFAEGKK as substrate measured after 40 mins in presence of [gamma33P]ATP by scintillation counting method
[19] = target: Casein kinase II subunit alpha (Homo sapiens) (UniProt P68400); experiment: Inhibition of recombinant full length human CK2alpha2 assessed as residual activity at 10 uM using RRRDDDSDDD as substrate measured after 40 mins in presence of [gamma33P]ATP by scintillation counting method
Chain of Casein kinase II subunit alpha (Homo sapiens) (P68400 whole entry, looked up): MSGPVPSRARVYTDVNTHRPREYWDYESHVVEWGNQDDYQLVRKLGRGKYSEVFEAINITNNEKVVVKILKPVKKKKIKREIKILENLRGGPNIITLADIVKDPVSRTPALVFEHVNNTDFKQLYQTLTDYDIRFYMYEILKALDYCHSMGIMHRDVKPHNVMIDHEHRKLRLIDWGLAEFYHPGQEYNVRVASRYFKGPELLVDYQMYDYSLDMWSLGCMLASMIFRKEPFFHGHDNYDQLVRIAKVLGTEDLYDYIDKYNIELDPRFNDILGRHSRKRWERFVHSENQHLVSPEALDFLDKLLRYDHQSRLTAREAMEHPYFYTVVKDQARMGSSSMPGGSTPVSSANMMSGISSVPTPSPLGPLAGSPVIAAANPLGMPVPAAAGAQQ

[20] = target: Cyclin-dependent kinase 13/Cyclin-K (Homo sapiens) (UniProt Q14004+O75909); experiment: Inhibition of recombinant full length human CDK13/cyclinK assessed as residual activity at 10 uM using RSRSRSRSRSRSRSR as substrate measured after 120 mins in presence of [gamma33P]ATP by scintillation counting method; format: protein-complex assay
Chain of Cyclin-dependent kinase 13/Cyclin-K (Homo sapiens) (O75909 whole entry, looked up): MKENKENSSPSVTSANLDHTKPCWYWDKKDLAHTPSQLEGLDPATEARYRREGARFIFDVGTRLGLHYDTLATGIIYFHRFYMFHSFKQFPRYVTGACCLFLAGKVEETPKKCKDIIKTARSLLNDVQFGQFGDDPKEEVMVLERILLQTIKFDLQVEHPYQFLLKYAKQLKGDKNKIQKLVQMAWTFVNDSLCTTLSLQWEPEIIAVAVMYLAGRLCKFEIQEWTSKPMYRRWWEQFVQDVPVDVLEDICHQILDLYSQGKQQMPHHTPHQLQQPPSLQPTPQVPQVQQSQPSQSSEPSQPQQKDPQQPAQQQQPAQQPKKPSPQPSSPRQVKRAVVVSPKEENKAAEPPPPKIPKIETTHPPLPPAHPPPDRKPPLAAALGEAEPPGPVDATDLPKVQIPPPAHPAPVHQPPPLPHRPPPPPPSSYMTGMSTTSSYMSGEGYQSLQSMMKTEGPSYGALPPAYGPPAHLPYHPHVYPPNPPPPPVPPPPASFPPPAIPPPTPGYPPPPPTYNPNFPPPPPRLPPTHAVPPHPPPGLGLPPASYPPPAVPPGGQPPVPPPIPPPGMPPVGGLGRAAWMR
Chain of Cyclin-dependent kinase 13/Cyclin-K (Homo sapiens) (Q14004 whole entry, looked up): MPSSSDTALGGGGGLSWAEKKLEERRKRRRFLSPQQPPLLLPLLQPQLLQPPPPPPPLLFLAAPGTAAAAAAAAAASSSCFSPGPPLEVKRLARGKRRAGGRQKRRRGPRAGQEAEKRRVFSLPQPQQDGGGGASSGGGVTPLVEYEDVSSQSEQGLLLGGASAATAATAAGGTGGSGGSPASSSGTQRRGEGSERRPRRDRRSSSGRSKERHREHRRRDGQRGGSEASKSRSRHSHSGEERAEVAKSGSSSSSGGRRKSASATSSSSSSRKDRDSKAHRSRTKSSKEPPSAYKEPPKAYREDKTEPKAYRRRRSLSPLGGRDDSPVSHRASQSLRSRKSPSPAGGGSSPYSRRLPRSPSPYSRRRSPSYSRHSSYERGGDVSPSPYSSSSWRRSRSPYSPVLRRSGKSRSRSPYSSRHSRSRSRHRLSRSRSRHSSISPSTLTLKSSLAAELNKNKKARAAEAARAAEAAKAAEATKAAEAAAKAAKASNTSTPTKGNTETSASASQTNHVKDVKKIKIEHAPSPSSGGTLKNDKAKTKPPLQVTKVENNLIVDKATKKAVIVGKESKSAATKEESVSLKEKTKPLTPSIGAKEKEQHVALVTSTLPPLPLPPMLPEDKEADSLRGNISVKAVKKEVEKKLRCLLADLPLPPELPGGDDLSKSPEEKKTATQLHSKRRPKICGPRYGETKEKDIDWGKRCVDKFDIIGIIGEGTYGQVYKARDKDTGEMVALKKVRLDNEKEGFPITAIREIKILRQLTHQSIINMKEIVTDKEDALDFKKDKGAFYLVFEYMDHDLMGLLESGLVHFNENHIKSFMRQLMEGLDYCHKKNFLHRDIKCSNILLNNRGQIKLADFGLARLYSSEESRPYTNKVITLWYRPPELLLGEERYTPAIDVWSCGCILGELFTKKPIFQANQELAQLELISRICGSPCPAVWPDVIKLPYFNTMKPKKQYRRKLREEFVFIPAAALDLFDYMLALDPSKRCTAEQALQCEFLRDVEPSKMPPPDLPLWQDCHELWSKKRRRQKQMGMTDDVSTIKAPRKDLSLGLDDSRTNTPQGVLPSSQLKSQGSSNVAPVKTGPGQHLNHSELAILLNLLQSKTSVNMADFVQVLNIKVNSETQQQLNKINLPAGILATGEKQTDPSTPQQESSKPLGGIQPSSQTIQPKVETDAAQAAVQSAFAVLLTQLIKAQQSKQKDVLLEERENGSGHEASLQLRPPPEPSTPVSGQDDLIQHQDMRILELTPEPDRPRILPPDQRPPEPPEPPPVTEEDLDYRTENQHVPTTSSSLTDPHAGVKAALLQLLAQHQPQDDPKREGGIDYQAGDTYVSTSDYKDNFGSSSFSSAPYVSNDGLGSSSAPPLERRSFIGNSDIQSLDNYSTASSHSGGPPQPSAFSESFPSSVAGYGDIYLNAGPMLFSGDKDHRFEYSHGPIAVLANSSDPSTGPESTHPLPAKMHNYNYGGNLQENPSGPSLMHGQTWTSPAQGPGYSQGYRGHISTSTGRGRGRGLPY

[21] = target: CDK9/cyclin T1 (Homo sapiens) (UniProt O60563+P50750); experiment: Inhibition of recombinant full length human CDK9/cyclinT1 assessed as residual activity at 10 uM using KTFCGTPEYLAPEVRREPRILSEEEQEMFRDFDYIADWC as substrate measured after 40 mins in presence of [gamma33P]ATP by scintillation counting method; format: protein-complex assay
[22] = target: Serine/threonine-protein kinase B-raf (Homo sapiens) (UniProt P15056); experiment: Inhibition of recombinant human BRAF (416 to end residues) assessed as residual activity at 10 uM using myelin basic protein as substrate measured after 40 mins in presence of [gamma33P]ATP by scintillation counting method
[23] = target: Receptor tyrosine-protein kinase erbB-4 (Homo sapiens) (UniProt Q15303); experiment: Inhibition of recombinant human ErbB4 (706 to 991 residues) assessed as residual activity at 10 uM using poly (Glu, Tyr) 4:1 as substrate measured after 40 mins in presence of [gamma33P]ATP by scintillation counting method
[24] = target: Mitogen-activated protein kinase kinase kinase 3 (Homo sapiens) (UniProt Q99759); experiment: Inhibition of recombinant full-length human MEKK3 assessed as residual activity at 10 uM using myelin basic protein as substrate measured after 40 mins in presence of [gamma33P]ATP by scintillation counting method
Chain of Mitogen-activated protein kinase kinase kinase 3 (Homo sapiens) (Q99759 whole entry): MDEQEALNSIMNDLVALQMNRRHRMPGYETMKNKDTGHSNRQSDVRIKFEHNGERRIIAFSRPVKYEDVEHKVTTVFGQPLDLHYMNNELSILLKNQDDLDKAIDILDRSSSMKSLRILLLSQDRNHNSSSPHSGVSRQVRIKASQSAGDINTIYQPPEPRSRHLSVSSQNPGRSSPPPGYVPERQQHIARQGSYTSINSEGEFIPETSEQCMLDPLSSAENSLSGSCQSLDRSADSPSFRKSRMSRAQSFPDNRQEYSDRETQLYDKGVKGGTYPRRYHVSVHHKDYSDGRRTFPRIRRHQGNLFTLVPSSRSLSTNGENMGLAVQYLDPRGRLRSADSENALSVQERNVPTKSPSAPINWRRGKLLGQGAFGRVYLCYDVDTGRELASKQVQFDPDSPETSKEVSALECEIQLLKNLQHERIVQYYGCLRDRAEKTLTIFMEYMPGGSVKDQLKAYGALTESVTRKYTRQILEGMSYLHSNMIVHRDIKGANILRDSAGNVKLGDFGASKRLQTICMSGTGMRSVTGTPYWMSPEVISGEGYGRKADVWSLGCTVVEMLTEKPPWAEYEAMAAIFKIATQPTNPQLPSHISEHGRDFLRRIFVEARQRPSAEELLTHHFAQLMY

Cc1cc(C)c(CNc2nc(Cl)nc3c2ncn3C2CCCC2)c(=O)[nH]1 was tested, and the Activity [1] was 103%, the Activity [2] was “Active” and the Activity [3] was 109%. It also gave an Activity [4] of 105%, an Activity [5] of 131% and an Activity [6] of 95.5%. The Activity [7] was 106%, the Activity [8] was 122% and the Activity [9] was 105%. The Activity [10] was 112%, the Activity [11] was 100% and the Activity [12] was 114%. The Activity [13] was 97%, the Activity [14] was 9.24% and the Activity [15] was “Active”. The Activity [16] was 101%, the Activity [17] was 104% and the Activity [18] was 136%. It also gave an Activity [19] of 89.5%, an Activity [20] of 97% and an Activity [21] of 106%. The Activity [22] was 122%, the Activity [23] was 103% and the Activity [24] was 106%.
